According to ChEMBL document CHEMBL3856276, “Design, Synthesis, and Biological Evaluation of Novel Tetrahydroprotoberberine Derivatives (THPBs) as Selective α1A-Adrenoceptor Antagonists” (J Med Chem, 2016):

How the values were obtained:
[1] = biological target: T1, Alpha-1A adrenergic receptor (Homo sapiens) (UniProt P35348); test: Antagonist activity at human full-length N-terminal SNAP-tagged alpha1A adrenoceptor expressed in HEK293 cells assessed as inhibition of agonist-induced calcium mobilization at 10 uM preincubated for 10 mins followed by agonist addition by fluo-4 AM dye-based assay relative to control; assay type: functional, cell-based
T1 sequence (whole entry): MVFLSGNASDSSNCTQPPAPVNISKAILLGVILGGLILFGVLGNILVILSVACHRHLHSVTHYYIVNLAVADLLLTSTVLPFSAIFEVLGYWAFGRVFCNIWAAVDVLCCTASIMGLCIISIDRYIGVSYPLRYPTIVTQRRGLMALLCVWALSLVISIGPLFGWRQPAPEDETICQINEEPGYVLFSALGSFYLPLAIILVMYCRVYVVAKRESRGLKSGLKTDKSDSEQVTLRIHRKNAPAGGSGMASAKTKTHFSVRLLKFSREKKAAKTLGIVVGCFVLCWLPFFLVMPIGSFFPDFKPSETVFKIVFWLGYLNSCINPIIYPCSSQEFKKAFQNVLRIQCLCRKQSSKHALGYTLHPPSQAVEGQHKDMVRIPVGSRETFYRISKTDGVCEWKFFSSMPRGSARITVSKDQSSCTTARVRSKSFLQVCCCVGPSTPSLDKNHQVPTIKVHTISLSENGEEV

[2] = biological target: Voltage-gated inwardly rectifying potassium channel KCNH2 (Homo sapiens, UniProt Q12809); test: Inhibition of human ERG
Rattus norvegicus [3] = test: Increase in voided volume in po dosed Sprague-Dawley rat benign prostatic hyperplasia model administered 20 mins followed by distilled watering loading measured for 2 hrs; assay type: functional
[4] = biological target: T2, Alpha-1A adrenergic receptor (Rattus norvegicus, UniProt P43140); test: Antagonist activity at alpha1A adrenoceptor in Sprague-Dawley rat urethra assessed as inhibition of norepinephrine-induced smooth muscle contraction after 20 mins
T2 sequence (P43140 whole entry): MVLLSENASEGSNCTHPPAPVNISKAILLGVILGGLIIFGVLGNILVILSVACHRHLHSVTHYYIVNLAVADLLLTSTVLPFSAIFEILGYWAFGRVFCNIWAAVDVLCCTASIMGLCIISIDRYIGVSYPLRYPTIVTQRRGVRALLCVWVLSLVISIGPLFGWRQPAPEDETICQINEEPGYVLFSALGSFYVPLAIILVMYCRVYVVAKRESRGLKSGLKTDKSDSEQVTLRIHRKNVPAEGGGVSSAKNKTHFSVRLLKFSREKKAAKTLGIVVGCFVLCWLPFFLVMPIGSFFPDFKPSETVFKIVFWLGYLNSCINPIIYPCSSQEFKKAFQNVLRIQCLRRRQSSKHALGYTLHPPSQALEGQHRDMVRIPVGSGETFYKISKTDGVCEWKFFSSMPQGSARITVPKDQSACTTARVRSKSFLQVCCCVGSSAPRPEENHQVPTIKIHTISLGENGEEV

Rattus norvegicus [5] = test: Inhibition of micturition frequency in po dosed Sprague-Dawley rat benign prostatic hyperplasia model administered 20 mins followed by distilled watering loading measured for 2 hrs; assay type: functional
[6] = biological target: T3, Alpha-1B adrenergic receptor (Rattus norvegicus, UniProt P15823); test: Antagonist activity at alpha1B adrenoceptor in Sprague-Dawley rat aorta assessed as inhibition of norepinephrine-induced smooth muscle contraction after 20 mins
T3 sequence (P15823 whole entry): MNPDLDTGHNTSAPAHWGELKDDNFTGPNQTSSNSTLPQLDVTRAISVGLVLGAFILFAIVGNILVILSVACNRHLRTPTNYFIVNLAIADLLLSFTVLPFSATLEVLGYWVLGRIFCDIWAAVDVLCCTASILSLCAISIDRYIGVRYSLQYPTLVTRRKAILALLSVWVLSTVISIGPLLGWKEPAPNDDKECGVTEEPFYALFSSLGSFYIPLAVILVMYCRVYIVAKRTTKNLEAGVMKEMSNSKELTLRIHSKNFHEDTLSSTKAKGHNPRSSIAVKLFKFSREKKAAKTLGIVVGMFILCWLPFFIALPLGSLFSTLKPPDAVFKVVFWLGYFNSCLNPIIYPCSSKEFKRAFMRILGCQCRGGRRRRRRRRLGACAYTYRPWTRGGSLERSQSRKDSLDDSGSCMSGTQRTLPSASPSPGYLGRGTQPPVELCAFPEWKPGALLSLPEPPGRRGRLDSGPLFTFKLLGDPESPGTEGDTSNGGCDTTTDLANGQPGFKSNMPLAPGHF

[7] = Toxicity in patient assessed as orthostatic hypotension; settings: human, in vivo

Sequence of Voltage-gated inwardly rectifying potassium channel KCNH2 (Q12809 whole entry): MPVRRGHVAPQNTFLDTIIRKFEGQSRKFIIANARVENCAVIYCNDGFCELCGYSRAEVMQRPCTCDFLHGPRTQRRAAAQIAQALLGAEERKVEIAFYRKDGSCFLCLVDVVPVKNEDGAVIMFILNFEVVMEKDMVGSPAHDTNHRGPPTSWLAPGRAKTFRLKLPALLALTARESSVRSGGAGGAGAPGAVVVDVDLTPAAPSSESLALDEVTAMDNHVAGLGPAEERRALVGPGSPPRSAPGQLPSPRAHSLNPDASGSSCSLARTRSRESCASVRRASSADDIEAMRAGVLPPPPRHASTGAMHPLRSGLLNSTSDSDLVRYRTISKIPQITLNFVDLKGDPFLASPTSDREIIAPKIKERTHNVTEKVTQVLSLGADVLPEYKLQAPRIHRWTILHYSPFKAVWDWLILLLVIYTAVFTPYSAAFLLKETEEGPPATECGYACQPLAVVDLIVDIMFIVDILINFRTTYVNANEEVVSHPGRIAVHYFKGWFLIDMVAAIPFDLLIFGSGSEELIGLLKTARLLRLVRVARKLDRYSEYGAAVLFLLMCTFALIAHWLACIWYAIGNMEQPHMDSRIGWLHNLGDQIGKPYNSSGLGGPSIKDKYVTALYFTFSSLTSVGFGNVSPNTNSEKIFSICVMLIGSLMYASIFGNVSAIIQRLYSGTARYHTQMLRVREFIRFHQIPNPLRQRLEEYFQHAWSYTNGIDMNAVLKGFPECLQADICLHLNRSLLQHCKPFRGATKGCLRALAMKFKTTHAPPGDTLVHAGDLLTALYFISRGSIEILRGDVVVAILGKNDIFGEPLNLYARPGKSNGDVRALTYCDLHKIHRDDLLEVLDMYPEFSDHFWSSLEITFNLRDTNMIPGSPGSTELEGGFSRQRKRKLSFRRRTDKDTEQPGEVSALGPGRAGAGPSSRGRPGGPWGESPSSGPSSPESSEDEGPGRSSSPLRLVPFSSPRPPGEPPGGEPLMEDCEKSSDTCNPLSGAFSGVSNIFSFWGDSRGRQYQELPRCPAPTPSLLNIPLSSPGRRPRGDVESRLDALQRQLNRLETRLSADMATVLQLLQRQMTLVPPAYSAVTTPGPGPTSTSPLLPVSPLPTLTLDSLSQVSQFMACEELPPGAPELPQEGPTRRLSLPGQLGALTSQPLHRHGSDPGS

- inhibition [1]: 100%
- IC50 [4]: 0.8 nM
- IC50 [6]: 90.1 nM
Structure (SMILES): C[C@H](Cc1cc2c(c(C(N)=O)c1)N(CCCO)CC2)NCCOc1ccccc1OCC(F)(F)F [SILODOSIN]
- IC50 [2]: 8200 nM
- Activity (Rattus norvegicus [3]): Dose-dependent effect
- inhibition (Rattus norvegicus [5]): Dose-dependent effect
- Activity [7]: 2.6%
